From patent publication US11339142B2, “Di-substituted pyrazole compounds for the treatment of diseases” (FGH BIOTECH, INC., priority 2016, dated 2022) come the findings set out here.

Assay [1] relates to PCSK9 expression. As to the kind of experiment: Quantitative PCR (qPCR) inhibition assay, PCSK9 mRNA expression in Hep G2 cells. The settings on record: Homo sapiens, HepG2 cells, 24 hours incubation, mRNA by qPCR; for inhibition at 0.32 µM: 320 nM, read-out: PCSK9 Inhibition Percentage (%) at 320 nM. In kind it is cell-based. Here is the method: Hep G2 cells were obtained from ATCC and grown in DMEM supplemented with 5% FBS in a 5% CO2 incubator at 37° C. For the assay the cells were plated in 24 well plates at a concentration of 100,000 cells/well in DMEM with 5% FBS. The compounds were serially diluted in DMSO from 0.1 to 20 mM and then diluted 1:1000 in growth medium. The medium was added to the cells in duplicate 24 hours after plating. After 24 hours of incubation the RNA was isolated from the cells using the illustra RNAspin Mini kit (GE Healthcare). For the quantitative PCR the RNA was analyzed using the Power SYBR® Green PCR Master Mix (Applied Biosystems) and gene specific primers. The reaction was run on a StepOnePlus Real-Time PCR System (Thermo Fisher Scientific) and the instrument software was used to determine the Ct values. The fold change of mRNA expression relative to the vehicle control was calculated. Primer sequence was as follows: PCSK9, 5′-[…]-3′/5′-[…]-3′.
(§1) All data for Biological Examples 1a and 1b were measured in HepG2 cells. % inhibition of SCD1 expression, % inhibition of PCSK9 expression, and PCSK9 IC50 data are provided in Table 1. NA means the compound was not active at the concentration tested.

For assay [2], the system named is SCD1 expression. As to the kind of experiment: Quantitative PCR (qPCR) inhibition assay, SCD1 mRNA expression in Hep G2 cells. The settings on record: Homo sapiens, HepG2 cells, 24 hours incubation, mRNA by qPCR, read-out: SCD1 Inhibition Percentage (%) at 1 μM. In kind it is cell-based. The method, then:
Hep G2 cells were obtained from ATCC and grown in DMEM supplemented with 10% FBS in a 5% CO2 incubator at 37° C. For the assay the cells were plated in 96 well plates at a concentration of 75,000 cells/well in DMEM with 5% FBS. The compounds were serially diluted in DMSO from 30 to 0.1 mM and then diluted 1:1000 in growth medium. The medium was added to the cells in duplicate 24 hours after plating. After 24 hours of incubation the RNA was isolated from the cells using the RNAqueous®-96 Total RNA Isolation Kit (Ambion). The eluted RNA was reverse transcribed using the Cells-to-Ct kit reverse transcriptase (Ambion). For the quantitative PCR the cDNA was analyzed using the Power SYBR® Green PCR Master Mix (Applied Biosystems) and gene specific primers. The reaction was run on an ABI7300 thermocycler and the instrument software was used to determine the Ct values. The fold change of mRNA expression relative to the vehicle control was calculated using the method by Livak. Primer sequence was as follows: SCD1, 5′-[…]-3′/5′-[…]-3′.
as §1
Background: Real-time PCR tracks product formation cycle by cycle.

As for `CCCn1cc(-n2cc(-c3ccc(OCC4CC4)c(F)c3)cn2)ccc1=O` [Example 27], the inhibition at 0.32 µM in assay [1] was below 10%.

As to `CCCn1cc(-n2cc(-c3ccc(OCC(C)(C)CO)nc3C)cn2)ccc1=O` [Example 14], in assay [1], the inhibition at 0.32 µM was at least 40% and the IC50 is at most 150 nM.

As to `CCCn1cc(-n2cc(-c3cnc(OC(C)C)nc3)cn2)ccc1=O` [Example 53, 5-(4-(2-isopropoxypyrimidin-5-yl)-1H-pyrazol-1-yl)-1-propylpyridin-2(1H)-one], the inhibition at 0.32 µM in assay [1] was below 10%.

Regarding `CCCn1cc(-n2cc(-c3ccc(OCC4CC4)cc3Cl)cn2)ccc1=O` [Example 26], the inhibition at 0.32 µM in assay [1] was at least 40%.

In the case of `CCCn1cc(-n2cc(-c3ccc(OCCCO)cc3Cl)cn2)ccc1=O` [Example 33], the inhibition at 1 µM in assay [2] was at least 40%.

`CCCn1cc(-n2cc(-c3ccc(OCC4CC4)cc3F)cn2)ccc1=O` [Example 30]: in assay [1], the inhibition at 0.32 µM was 10 to 40%.

Take `CCCn1cc(-n2cc(-c3ccc(OCC(C)C)cc3Cl)cn2)ccc1=O` [Example 8]: in assay [1], the inhibition at 0.32 µM is at least 40% and the IC50 lay within 150 to 600 nM.

With `CCCn1cc(-n2cc(-c3ccc(S(=O)(=O)C4CC4)cc3)cn2)ccc1=O` [Example 64], the inhibition at 1 µM in assay [2] was at least 40%.

In the case of `CCCn1cc(-n2cc(-c3ccc(S(=O)(=O)C4CCC(F)(F)CC4)cc3C)cn2)ccc1=O` [Example 79], the inhibition at 0.32 µM in assay [1] lay within 10 to 40%.

As for `CCCn1cc(-n2cc(-c3ccc(OC(F)(F)F)cc3Cl)cn2)ccc1=O` [Example 4], the inhibition at 1 µM in assay [2] was at least 40%.

As to `CCCn1cc(-n2cc(-c3ccc(OCC4(CO)COC4)nc3C)cn2)ccc1=O` [Example 15], in assay [1], the inhibition at 0.32 µM is at least 40% and the half-inhibitory concentration (IC50) was at most 150 nM.

In the case of `CCCn1cc(-n2cc(-c3ccc(OC4CC4)nc3C)cn2)ccc1=O` [Example 12], the inhibition at 1 µM in assay [2] lay in the range of 10 to 40%.

Regarding `CCCn1cc(-n2cc(-c3ccc(OC)cc3)cn2)ccc1=O` [Example 46, 5-(4-(4-methoxyphenyl)-1H-pyrazol-1-yl)-1-propylpyridin-2(1H)-one], in assay [2], the inhibition at 1 µM is 10 to 40%.

As to `CCCn1cc(-n2cc(-c3ccc(O[C@H](C)CC)cc3)cn2)ccc1=O` [Example 41], the inhibition at 1 µM in assay [2] is at least 40%.

As to `CCCn1cc(-n2cc(-c3ccc(OCC4(CO)CCC4)cc3Cl)cn2)ccc1=O` [Example 49, 5-(4-(2-chloro-4-((1-(hydroxymethyl)cyclobutyl)methoxy)phenyl)-1H-pyrazol-1-yl)-1-propylpyridin-2(1H)-one], in assay [1], the inhibition at 0.32 µM is at least 40% and the IC50 was at most 150 nM.

For `CCCn1cc(-n2cc(-c3ccc(OCC(C)(C)CO)cc3Cl)cn2)ccc1=O` [Example 48, 5-(4-(2-chloro-4-(3-hydroxy-2,2-dimethylpropoxy)phenyl)-1H-pyrazol-1-yl)-1-propylpyridin-2(1H)-one], the inhibition at 1 µM in assay [2] was at least 40%.

Consider `CCCn1cc(-n2cc(-c3cc(F)c(OCC4CC4)c(F)c3)cn2)ccc1=O` [Example 28], for which the inhibition at 0.32 µM in assay [1] is below 10%.

With `CCCn1cc(-n2cc(-c3cnc(S(=O)(=O)C(C)C)nc3)cn2)ccc1=O` [Example 54, 5-(4-(2-(isopropylsulfonyl)pyrimidin-5-yl)-1H-pyrazol-1-yl)-1-propylpyridin-2(1H)-one], in assay [1], the inhibition at 0.32 µM was below 10%.

As to `CCCn1cc(-n2cc(-c3ccc(OC4CCC4)nc3C)cn2)ccc1=O` [Example 7], the inhibition at 1 µM in assay [2] is at least 40%.

Take `CCCn1cc(-n2cc(-c3ccc(OCC(C)C)cc3F)cn2)ccc1=O` [Example 31]: the inhibition at 0.32 µM in assay [1] lay in the range of 10 to 40%.

With `CCCn1cc(-n2cc(-c3ccc(OCC4CC4)c(C)c3)cn2)ccc1=O` [Example 29], the inhibition at 0.32 µM in assay [1] was below 10%.

On to `CCCn1cc(-n2cc(-c3ccc(OC(C)CO)cc3)cn2)ccc1=O` (stereo not drawn) [Example 42], for which the inhibition at 1 µM in assay [2] was in the range of 10 to 40%.

For `CCCn1cc(-n2cc(-c3ccc(S(=O)(=O)CC)cc3)cn2)ccc1=O` [Example 51, 5-(4-(4-(ethylsulfonyl)phenyl)-1H-pyrazol-1-yl)-1-propylpyridin-2(1H)-one], in assay [2], the inhibition at 1 µM is at least 40%.

As for `CCCn1cc(-n2cc(-c3ccc(OCC4(CO)CCC4)nc3C)cn2)ccc1=O` [Example 16], in assay [1], the inhibition at 0.32 µM is at least 40% and the IC50 is at most 150 nM.

`CCCn1cc(-n2cc(-c3ccc(OC(C)C4CC4)cc3Cl)cn2)ccc1=O` (stereo not drawn) [Example 34]: the inhibition at 1 µM in assay [2] was at least 40%.

For the compound `CCCn1cc(-n2cc(-c3ccc(S(=O)(=O)C(C)C)cc3F)cn2)ccc1=O` [Example 21], in assay [2], the inhibition at 1 µM is at least 40%.

As for `CCCn1cc(-n2cc(-c3ccc(OC(C)C)cc3Cl)cn2)ccc1=O` [Example 40], the inhibition at 1 µM in assay [2] was in the range of 10 to 40%.

As for `CCCn1cc(-n2cc(-c3ccc(OC(C)CCO)cc3Cl)cn2)ccc1=O` (stereo not drawn) [Example 47, 5-(4-(2-chloro-4-((4-hydroxybutan-2-yl)oxy)phenyl)-1H-pyrazol-1-yl)-1-propylpyridin-2(1H)-one], the inhibition at 1 µM in assay [2] is at least 40%.

Consider `CCCn1cc(-n2cc(-c3ccc(S(=O)(=O)CC4CC4)cc3Cl)cn2)ccc1=O` [Example 19], for which, in assay [2], the inhibition at 1 µM was at least 40%.

For `CCCn1cc(-n2cc(-c3ccc(OC(CC)CC)cc3Cl)cn2)ccc1=O` [Example 38], the inhibition at 0.32 µM in assay [1] is at least 40%.

Regarding `CCCn1cc(-n2cc(-c3ccc(O[C@@H](C)CC)cc3Cl)cn2)ccc1=O` [Example 35], in assay [2], the inhibition at 1 µM is at least 40%.

`CCCn1cc(-n2cc(-c3ccc(OC)cc3Cl)cn2)ccc1=O` [Example 45, 5-(4-(2-chloro-4-methoxyphenyl)-1H-pyrazol-1-yl)-1-propylpyridin-2(1H)-one]: the inhibition at 1 µM in assay [2] was in the range of 10 to 40%.

For `CCCn1cc(-n2cc(-c3ccc(S(=O)(=O)C(C)C)cc3)cn2)ccc1=O` [Example 25], in assay [2], the inhibition at 1 µM is at least 40%.

For `CCCn1cc(-n2cc(-c3ccc(OCC(F)(F)CO)nc3C)cn2)ccc1=O` [Example 82], the inhibition at 0.32 µM in assay [1] is at least 40%.

As to `CCCn1cc(-n2cc(-c3ccc(OCC4(CO)CC4)nc3C)cn2)ccc1=O` [Example 13], in assay [1], the inhibition at 0.32 µM was at least 40% and the IC50 is at most 150 nM.

Consider `CCCn1cc(-n2cc(-c3ccc(OCC4(CO)CC4)cc3C)cn2)ccc1=O` [Example 81], for which, in assay [1], the inhibition at 0.32 µM was at least 40% and the IC50 was at most 150 nM.

With `CCCn1cc(-n2cc(-c3ccc(S(=O)(=O)CC)cc3Cl)cn2)ccc1=O` [Example 55, 5-(4-(2-chloro-4-(ethylsulfonyl)phenyl)-1H-pyrazol-1-yl)-1-propylpyridin-2(1H)-one], the inhibition at 1 µM in assay [2] is at least 40%.

Regarding `Cc1nc(OC2CCCC2)ccc1-c1cnn(-c2ccc(=O)n(CC(C)C)c2)c1` [Example 50, 5-(4-(6-(cyclopentyloxy)-2-methylpyridin-3-yl)-1H-pyrazol-1-yl)-1-isobutylpyridin-2(1H)-one], the inhibition at 1 µM in assay [2] was at least 40%.

Take `CCCn1cc(-n2cc(-c3ccc(S(=O)(=O)C(CC)CC)cc3Cl)cn2)ccc1=O` [Example 20]: the inhibition at 1 µM in assay [2] was at least 40%.

`CCCn1cc(-n2cc(-c3ccc(OC(C)CO)cc3Cl)cn2)ccc1=O` (stereo not drawn) [Example 37]: the inhibition at 1 µM in assay [2] is at least 40%.

Take `CCCn1cc(-n2cc(-c3ccc(S(=O)(=O)C4CCC4)cc3C)cn2)ccc1=O` [Example 78]: in assay [1], the inhibition at 0.32 µM is at least 40% and the IC50 is at most 150 nM.

For `CCCn1cc(-n2cc(-c3ccc(OCC4(CO)COC4)cc3Cl)cn2)ccc1=O` [Example 39], in assay [1], the inhibition at 0.32 µM is at least 40% and the IC50 lay in the range of 150 to 600 nM.

On to `CCCn1cc(-n2cc(-c3ccc(OC(C)C)nc3C)cn2)ccc1=O` [Example 2], for which the inhibition at 1 µM in assay [2] is at least 40%.

For the compound `CCCn1cc(-n2cc(-c3ccc(OC(C)C4CC4)nc3C)cn2)ccc1=O` (stereo not drawn) [Example 11], the inhibition at 1 µM in assay [2] is at least 40%.

For `CCCn1cc(-n2cc(-c3ccc(S(=O)(=O)C4CC(F)(F)C4)cc3C)cn2)ccc1=O` [Example 80], in assay [1], the inhibition at 0.32 µM lay in the range of 10 to 40%.

Consider `CCCn1cc(-n2cc(-c3ccc(O[C@H](C)CC)cc3Cl)cn2)ccc1=O` [Example 36], for which the inhibition at 1 µM in assay [2] is at least 40%.

With `CCCn1cc(-n2cc(-c3ccc(OCC4(CO)CC4)cc3Cl)cn2)ccc1=O` [Example 32], in assay [2], the inhibition at 1 µM was at least 40%.

For the compound `CCCn1cc(-n2cc(-c3ccc(S(=O)(=O)C(C)C)nc3C)cn2)ccc1=O` [Example 52, 5-(4-(6-(isopropylsulfonyl)-2-methylpyridin-3-yl)-1H-pyrazol-1-yl)-1-propylpyridin-2(1H)-one], in assay [1], the inhibition at 0.32 µM is below 10%.

A word on the inhibition: it is the drop in the measured response relative to a control, in per cent. The IC50 is the concentration that gives 50% inhibition. Higher therefore signals weaker potency.
